In US9732053B2, “1-[2-(2,4-dimethylphenylsulfanyl) phenyl]piperazine acetate in crystalline form” (LEK PHARMACEUTICALS D.D., priority 2013, dated 2017):
Structures can show the parent of a compound that is named as a salt.

Legend:
[1] = room temperature; data from WO 2007/144005 A1 and WO 2010/121621 A1; cited from earlier work
[2] = Slurry experiments in n-heptane for thermodynamic stability (Examples 12-13); assay type: physicochemical; settings: room temperature
Procedure: Slurry experiments were performed to determine the order of the thermodynamic stability of the solid state forms at room temperature (see also Examples 12-13 of the present invention).
35 mg of vortioxetine acetate form Ill was suspended in 0.5 mL n-heptane and stirred with a magnetic stirrer at room temperature for 4 weeks.
25 mg of vortioxetine acetate form I was suspended in 0.5 mL n-heptane and stirred with a magnetic stirrer at room temperature for 24 h.

[3] = Gravimetric moisture sorption/desorption cycle; assay type: physicochemical; settings: for Δm (0-80% RH), water absorption: 25° C.; for Structural changes during moisture sorption: sorption desorption cycle, XRPD
Procedure: Moisture sorption isotherms were recorded with an SPSx-1μ moisture sorption analyzer (ProUmid, Ulm). The measurement cycle was started at 3% relative humidity (RH). Then the RH was increased from 5% to 75%, decreased to 0% and increased to 80% in 5% steps. Finally the RH was decreased to 0% in 10% steps and equilibrated in a last step to 35%. The time per step was set to a minimum of 1 hour and a maximum of 3 hours. If an equilibrium condition with a constant mass of ±0.01% within 1 hour was reached before the maximum time for all examined samples, the sequential humidity step was applied before the maximum time of 3 hours. If no equilibrium was achieved, the consecutive humidity step was applied after the maximum time of 3 hours. The temperature was 25±0.1° C. The final water content was determined by coulometric Karl Fischer titration.
Coulometric Karl Fischer titration was performed with a Metrohm 831 KF Coulometer equipped with a double-platinum detecting electrode, a Metrohm 832 KF Thermoprep oven (130° C.) and Hydranal Coulomat AK as Karl Fischer reagent.

[4] = Water solubility determination of vortioxetine acetate form III (Example 9); assay type: physicochemical
Procedure: 100 μL water was added to 100.34 mg of vortioxetine acetate form Ill. The mixture was vigorously shaken for 2 min and placed at 25° C. for 15 min. The solid was not completely dissolved, therefore a further 100 μL of water was added and the dissolving procedure repeated. […] According to […]

[5] = Stress tests at increased relative humidity with XRPD analysis (Examples 10-11); assay type: physicochemical
Procedure: X-ray powder diffractograms (XRPD) were obtained with an X'Pert PRO diffractometer (PANalytical, Almelo, The Netherlands) equipped with a theta/theta coupled goniometer in transmission geometry, programmable XYZ stage with well plate holder, Cu-Kα1,2 radiation source (wavelength 0.15419 nm) and a solid state PIX'cel detector. The diffractograms were recorded at a tube voltage of 45 kV, tube current of 40 mA applying a step size of 0.013° 2-theta with 40 s per step (255 channels) in the angular range of 2° to 40° 2-theta at ambient conditions. A typical precision of the 2-theta values is in the range of about ±0.2° 2-theta. Thus a diffraction peak that appears at 5.0° 2-theta can appear between 4.8 and 5.2° 2-theta on most X-ray diffractometers under standard conditions.
42 mg of vortioxetine acetate form Ill was stressed at 40° C./75% RH for 4 weeks.
34 mg of vortioxetine acetate form Ill were stressed at RT/97% RH for 4 weeks.

[6] = listed as acetate form I, acetate
[7] = listed as acetate form III, acetate

In the case of `CC(O)C(=O)O.Cc1ccc(Sc2ccccc2N2CCNCC2)c(C)c1` [DL-lactate form β], the Aqueous solubility [1] is given as 8 mg base/mL.

In the case of `Br.Cc1ccc(Sc2ccccc2N2CCNCC2)c(C)c1` [HBr form α], the Aqueous solubility [1] is given as 2 mg base/mL.

In the case of `Br.Cc1ccc(Sc2ccccc2N2CCNCC2)c(C)c1` [HBr form β], the Aqueous solubility [1] is listed as 1.2 mg base/mL.

For `Cc1ccc(Sc2ccccc2N2CCNCC2)c(C)c1` [HCl MH], the Aqueous solubility [1] is given as 2 mg base/mL.

In the case of `Cc1ccc(Sc2ccccc2N2CCNCC2)c(C)c1.Cl` [HCl], the Aqueous solubility [1] is listed as 3 mg base/mL.

In the case of `CC(O)C(=O)O.Cc1ccc(Sc2ccccc2N2CCNCC2)c(C)c1` [L-lactate form MH2], the Aqueous solubility [1] is given as 26 mg base/mL.

In the case of `Cc1ccc(Sc2ccccc2N2CCNCC2)c(C)c1` [free base, 1-[2-(2,4-Dimethylphenylsulfanyl)phenyl]piperazine], the Aqueous solubility [1] is given as 0.1 mg base/mL.

In the case of `CC(=O)O.Cc1ccc(Sc2ccccc2N2CCNCC2)c(C)c1` [vortioxetine acetate form I, 1-[2-(2,4-dimethylphenylsulfanyl)phenyl]piperazine acetate], the “Structural changes after slurry (XRPD)” value ([2]; stirred 24 h, acetate) is reported as “transformed to form III”, the “Structural changes after slurry (XRPD)” value ([2]; stirred 24 h, listed as Form I of vortioxetine acetate) is reported as “undergoes a transition to form III” and the “Δm (0-80% RH), water absorption” value [3, 6] is reported as “+2%”. For the same compound, the “Δm (0-80% RH), water absorption” value ([3]; listed as form I, acetate) was 2%, the “Structural changes during moisture sorption” value [3, 6] was “partial decomposition to free base” and the “Structural changes during moisture sorption” value ([3]; listed as form I, acetate) was “partial decomposition of the acetate salt to the free base”.

For `CC(=O)O.Cc1ccc(Sc2ccccc2N2CCNCC2)c(C)c1` [vortioxetine acetate form III, 1-[2-(2,4-dimethylphenylsulfanyl)phenyl]piperazine acetate], the “Structural changes after slurry (XRPD)” value ([2]; stirred 4 weeks, acetate) was “does not undergo any transformation”, the “Structural changes after slurry (XRPD)” value ([2]; stirred 4 weeks, listed as vortioxetine acetate form Ill) was “no structural changes” and the “Δm (0-80% RH), water absorption” value [3, 7] was “+0.4%^”. For the same compound, the “Hygroscopicity according to European Pharmacopoeia” value ([3]; gravimetric moisture sorption desorption curve, FIG. 6) was “only slightly hygroscopic”, the Water content ([3]; relative humidity of about 0%) was “about 0.3%” and the Water content ([3]; relative humidity of about 80%, acetate) was “less than 0.7%”. The Water content ([3]; relative humidity of about 80%, listed as form III of vortioxetine acetate, acetate) was “about 0.7%”, the “Structural changes during moisture sorption” value [3, 7] was “no changes from 0-97% RH” and the “Aqueous solubility calculated as free base” value ([4]; 25° C. / room temperature, converted from acetate salt by Equation 1) was 278 mg base/mL. For the same compound, the solubility ([4]; thermodynamic from solid, 25° C., 100.34 mg dissolved in 300 μL, read-out: Solubility of the acetate salt in water) was 334 mg/mL, the “Structural changes after stress (XRPD)” value ([5]; 40° C./75% RH for 4 weeks) was “no structural changes” and the “Structural changes after stress (XRPD)” value ([5]; RT/97% RH for 4 weeks) was “no structural changes”.

For fumarate, the Aqueous solubility [1] is listed as 0.4 mg base/mL.

For maleate, the Aqueous solubility [1] is listed as “≈1 mg base/mL”.

For phosphate, the Aqueous solubility [1] is listed as “≈1 mg base/mL”.
